Reference: patent publication US6509161B1, “Green fluorescent protein” (Gentronix Limited, priority 2000, dated 2003)

Assays:
[1] = Fluorescence polarisation ratio of fluorophores, commercial fluorescence spectrometer with two polarising filters; type: physicochemical; details: average of 20 replicate readings, cuvette
Excerpt: A standard commercial fluorescence spectrometer (LS50-B, Perkin Elmer) was used to carry out conventional measurements of fluorescence, scattered light intensity and for obtaining excitation and emission spectra, with a 1 cm path length acrylic cuvette (not shown). A yellow Schott glass filter (not shown) (YG495, thickness=3 mm) was placed within the sample chamber directly in front of the window of a PMT, in order to block excitation light scattered towards the PMT by yeast cells suspended in the cuvette. For fluorescence measurements the excitation and emission wavelengths were 490 and 520 nm respectively. […] Light intensity was recorded in arbitrary units produced directly by the instrument software.
Four fluorophores were chosen, which were close spectroscopic mimics of GFP. […] Using the commercial fluorescence spectrometer (not shown), the fluorescence excitation and emission spectra for each fluorophore and for GFP were obtained. […] HPTSA needed to be used at 20 times the concentration of fluorescein to obtain the same magnitude fluorescence signal.
To measure the fluorescence polarisation ratio (P) of the fluorophores, two polarising filters (not shown) (Grade HN38 polaroid sheet, laminated in rigid acrylic, thickness=3.4 mm) were inserted within the housing 3, one either side of the sample cuvette (Which was used in place of the flow cell 2). […]

[2] = Fluorescence polarisation by flow-injection analysis on the two-PMT apparatus; type: physicochemical; details: 488 nm excitation, GFP within whole GM-FF18984 yeast cells (0.005 % MMS, 18 hours), HPTSA 1×10^−7 mol l^−1 in phosphate buffer
Description: An air cooled argon ion laser (162LGL, LG Laser Graphics GmbH, Dieburg, Germany), provided a 488 nm excitation light beam of 5 mW after filtering (TEM00>95%, beam diameter 0.67±0.05 mm). The light beam is represented by the arrow 1 in FIG. 1. The light beam 1 was plane polarised (>100:1). A four window quartz fluorescence flow cell 2 with an internal volume of 132 μl, specially constructed by Hellma Ltd, Southend-on-Sea, UK was housed in a cubic black plastic mounting block 3 (30×30×30 mm). The mounting block 3 was built at the University of Manchester Institute of Science and Technology. […]
A 488 nm interference filter 7, (3 nm half bandwidth), was used to filter the excitation light beam 1. […] One filter 8, 9 was rotated through 90° with respect to the other, such that one PMT 5 recorded the fluorescence intensity emitted polarised parallel with respect to the excitation beam (Ill), and the other PMT 6 recorded that emitted polarised perpendicular with respect to the excitation beam (Il). […] Additional filters were optimised and used in conjunction with the polarising filters to allow the laser-induced GFP fluorescence at 517 nm to be measured, whilst rejecting the high intensity laser light at 488 nm scattered towards the detector by yeast cells suspended in the stream of liquid passing through the flow cell. […]

For `O=S(=O)([O-])c1cc(O)c2ccc3c(S(=O)(=O)[O-])cc(S(=O)(=O)[O-])c4ccc1c2c34.[Na+].[Na+].[Na+]` [HPTSA, 8-hydroxypyrene-1,3,6-trisulfonic acid trisodium salt], the “difference between Ill and Il” value [1] was “less than 0.5%” and the “average fluorescence polarisation ratio (P)” value [2] was “≈ 0”.
